This note sets out measurements from ChEMBL document CHEMBL1201862, “PubChem BioAssay data set” (2004).

Test systems include KM12; U-251; SF-295; A498; OVCAR-4; SK-MEL-28; SR; K562; HL-60; MDA-MB-435; A549; HOP-62; SK-MEL-2; UO-31; ACHN; RXF 393; SW-620; HOP-92; BT-549.
Test in all cases: NCI anticancer screen, dose series, 48 h

Each structure is given as a SMILES string.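 Protocol summary: plate cells (96-well), add compound at 5 concentrations, incubate 48 h, interpolate endpoints linearly. The concentration for 50% growth inhibition is given as GI50.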 Calls of active or inactive are those of the source. No stated cut-off is given here; in the data, active = GI50 up to about 1.1 µM and inactive = higher.

For the molecule `CS/C(C#N)=C(\C#N)SC`, the GI50 with KM12 is 13.9 µM (inactive); with U-251, 4.45 µM (inactive); in the assay on SF-295, 18.5 µM (inactive); in the assay on A498 it was 23 µM (inactive); with OVCAR-4, 13.4 µM (inactive); with SK-MEL-28, 10.7 µM (inactive). Besides, the GI50 was 1.24 µM (inactive) with SR; 4.11 µM (inactive) in the assay on K562; 1.79 µM (inactive) in the assay with HL-60; 14 µM (inactive) in the assay on MDA-MB-435; 30.4 µM (inactive) in the assay with A549; 16.6 µM (inactive) with HOP-62. Also, the GI50 was 12.4 µM (inactive) in the assay with SK-MEL-2; 4.18 µM (inactive) with UO-31; 4.33 µM (inactive) with ACHN; 1.82 µM (inactive) with RXF 393; 4.47 µM (inactive) in the assay with SW-620.
With `O=C(O)[C@H](Cc1ccccc1)NCCN1CCC[C@H]1C(=O)O`, the GI50 in the assay on KM12 was > 100 µM (inactive); in the assay on U-251, > 100 µM (inactive); with SF-295, > 100 µM (inactive); in the assay with A498, 42.6 µM (inactive); with OVCAR-4, 3.74 µM (inactive); with SK-MEL-28 it was > 100 µM (inactive). Further, the GI50 in the assay with K562 is 1.53 µM (inactive); in the assay on MDA-MB-435 it was > 100 µM (inactive); in the assay on A549, > 100 µM (inactive); in the assay on HOP-92, 1.91 µM (inactive); with HOP-62, > 100 µM (inactive); with SK-MEL-2, > 100 µM (inactive). Also, the GI50 was 32.4 µM (inactive) with UO-31, > 100 µM (inactive) in the assay on RXF 393 and 80.4 µM (inactive) with SW-620.
For the molecule `COc1ccc(C[N+]23C(CC[C@H]2c2ccccc2)CC[C@H]3c2ccccc2)cc1` (some centres not stated), the GI50 in the assay on KM12 is 10.4 µM (inactive); with U-251 it was 18.6 µM (inactive); in the assay with SF-295 it was 26.1 µM (inactive); with A498, 39.7 µM (inactive); with OVCAR-4, 13.1 µM (inactive); in the assay on SK-MEL-28, 20.3 µM (inactive). Further, the GI50 in the assay on SR was 15.7 µM (inactive); with K562, 6.46 µM (inactive); in the assay on HL-60, 4.06 µM (inactive); in the assay with MDA-MB-435, 9.84 µM (inactive); in the assay on A549, 31.3 µM (inactive); with HOP-92, 9.66 µM (inactive). For the same molecule, the GI50 was 21 µM (inactive) with HOP-62; 18.5 µM (inactive) in the assay on SK-MEL-2; 31.9 µM (inactive) in the assay with UO-31; 67.6 µM (inactive) with ACHN; 13.8 µM (inactive) in the assay on RXF 393; 28.2 µM (inactive) in the assay with SW-620.
Consider `CCN1CCN(c2nc3ccccc3nc2C(=O)c2ccc(OC)cc2)CC1`, for which the GI50 in the assay on KM12 was 24.8 µM (inactive); in the assay with U-251 it was 39.4 µM (inactive); with SF-295, 32.7 µM (inactive); in the assay with A498 it was 37.1 µM (inactive); in the assay with OVCAR-4, 57.5 µM (inactive); in the assay on SK-MEL-28, 36 µM (inactive). The GI50 was 11.7 µM (inactive) in the assay with SR; 43.9 µM (inactive) with K562; > 100 µM (inactive) in the assay with HL-60; 44.3 µM (inactive) in the assay on MDA-MB-435; 23.8 µM (inactive) in the assay with A549; 18.3 µM (inactive) with HOP-92. The GI50 in the assay on HOP-62 was 16 µM (inactive); in the assay with SK-MEL-2, 41 µM (inactive); with UO-31, 19.7 µM (inactive); in the assay with ACHN, 27.8 µM (inactive); in the assay on RXF 393 it was 12.4 µM (inactive); with SW-620 it was 30.3 µM (inactive).
Turning to `CCOC(=O)N1CCC2(CC1)C[C@](Sc1ccccc1)(C(C)=O)[C@H](C)O2`, the GI50 in the assay on KM12, in the assay with U-251, in the assay on SF-295, in the assay with A498, with OVCAR-4 and in the assay with SK-MEL-28 was > 100 µM (inactive) throughout. Also, the GI50 in the assay on SR, in the assay on K562, in the assay on HL-60, in the assay on MDA-MB-435, with A549 and with HOP-92 was > 100 µM (inactive) throughout. In addition, the GI50 in the assay with HOP-62, in the assay on SK-MEL-2, with UO-31, with ACHN, with RXF 393 and in the assay on SW-620 was > 100 µM (inactive) each time.
Regarding `Cc1cc([N+](=O)[O-])ccc1Sc1c2ccccc2nc2ccccc12`, the GI50 with KM12 was 18.5 µM (inactive); in the assay on U-251, 28.5 µM (inactive); in the assay on SF-295, 39.4 µM (inactive); in the assay with A498, > 100 µM (inactive); in the assay on OVCAR-4, 57.8 µM (inactive); in the assay with SK-MEL-28 it was > 100 µM (inactive). Further, the GI50 in the assay with SR is 27.7 µM (inactive); with K562, 32.1 µM (inactive); in the assay on HL-60, 3.03 µM (inactive); in the assay on A549, 64.6 µM (inactive); with HOP-92, 48.3 µM (inactive); with HOP-62, > 100 µM (inactive). The GI50 in the assay with SK-MEL-2 was 23.1 µM (inactive); in the assay on UO-31, 44.7 µM (inactive); with ACHN, 48.9 µM (inactive); in the assay with RXF 393, 57.5 µM (inactive); with SW-620, 22.6 µM (inactive).
For `CC1=CC(=O)C(C(O)(C(F)(F)F)C(F)(F)F)C(C)(C)C1` (configuration not stated), the GI50 in the assay on KM12, in the assay on U-251, in the assay on SF-295, with A498, with OVCAR-4 and in the assay on SK-MEL-28 was > 10 µM (inactive) in each case. Also, the GI50 in the assay with SR, in the assay on K562, in the assay with HL-60, with MDA-MB-435, in the assay on A549 and in the assay with HOP-62 was > 10 µM (inactive) each time. For the same molecule, the GI50 in the assay on SK-MEL-2, in the assay with UO-31, with ACHN, with RXF 393 and in the assay with SW-620 was > 10 µM (inactive) throughout.
Consider `COc1ccc(/C=C2\OC(=O)C(Cl)=C2c2ccc(OC)c(Cl)c2)cc1`, for which the GI50 with KM12 is 28.7 µM (inactive); in the assay on U-251, 29.4 µM (inactive); with SF-295 it was 25.5 µM (inactive); in the assay with A498, 17.7 µM (inactive); with OVCAR-4, 20.3 µM (inactive); in the assay on SK-MEL-28 it was 35.7 µM (inactive). Also, the GI50 in the assay on SR was 29 µM (inactive); with K562, 56.1 µM (inactive); with HL-60 it was 47.1 µM (inactive); with MDA-MB-435 it was 23.8 µM (inactive); in the assay with A549, 24.4 µM (inactive); in the assay on HOP-92, 17.9 µM (inactive). Further, the GI50 with HOP-62 was 15.2 µM (inactive); in the assay on SK-MEL-2, 49.8 µM (inactive); with UO-31 it was 22 µM (inactive); in the assay on ACHN, 30.4 µM (inactive); with RXF 393 it was 12 µM (inactive); with SW-620 it was 36.6 µM (inactive).
For the molecule `COC(=O)CC[N+]1([O-])CC1`, the GI50 in the assay with KM12 was > 100 µM (inactive); in the assay on U-251, > 100 µM (inactive); in the assay on SF-295, > 100 µM (inactive); in the assay on A498 it was 33.2 µM (inactive); in the assay on OVCAR-4, > 100 µM (inactive); in the assay on SK-MEL-28, > 100 µM (inactive). The GI50 in the assay on SR, with HL-60, in the assay with MDA-MB-435, in the assay on A549, with HOP-92 and with HOP-62 was > 100 µM (inactive) each time. In addition, the GI50 in the assay on UO-31, in the assay on ACHN, in the assay with RXF 393 and with SW-620 was > 100 µM (inactive) throughout.
On to `O=S(=O)(Cc1ccccc1)c1nnc(S(=O)(=O)c2ccc(Cl)cc2)s1`, for which the GI50 with KM12 is 25.7 µM (inactive); in the assay with U-251, 33 µM (inactive); in the assay with SF-295 it was 24.1 µM (inactive); with BT-549, 20 µM (inactive); with A498 it was 22 µM (inactive); with OVCAR-4 it was 24.4 µM (inactive). The GI50 was 19.9 µM (inactive) with SK-MEL-28; 32.2 µM (inactive) with K562; 27.1 µM (inactive) in the assay on MDA-MB-435; 27.5 µM (inactive) in the assay on A549; 21.4 µM (inactive) with HOP-62; 22.8 µM (inactive) in the assay with SK-MEL-2. For the same molecule, the GI50 in the assay with UO-31 is 21.3 µM (inactive); in the assay on ACHN, 19.4 µM (inactive); with RXF 393, 17.3 µM (inactive); in the assay on SW-620, 23.9 µM (inactive).
As to `Cc1cn(Cc2ccccc2CCl)c(=O)[nH]c1=O`, the GI50 in the assay on KM12 is 12.9 µM (inactive); in the assay with U-251 it was 7.94 µM (inactive); with SF-295, 13.8 µM (inactive); in the assay with OVCAR-4, 34.3 µM (inactive); in the assay with SK-MEL-28, 19.4 µM (inactive); in the assay with K562, 4.72 µM (inactive). The GI50 in the assay with HL-60 was 3.08 µM (inactive); with MDA-MB-435, 11.5 µM (inactive); with A549, 16.9 µM (inactive); in the assay on HOP-92, 25.4 µM (inactive); with HOP-62 it was 15.6 µM (inactive); in the assay with SK-MEL-2 it was 14.3 µM (inactive). Moreover, the GI50 was 11.6 µM (inactive) in the assay with UO-31, 12.6 µM (inactive) in the assay on ACHN, 8 µM (inactive) in the assay on RXF 393 and 8.15 µM (inactive) in the assay on SW-620.
Take `COc1cccc2c1[C@H](OC)[C@]13O[C@@]1(C2=O)[C@H](O)[C@H](C)[C@@](O)(C(=O)[C@@H]1O[C@H]1C)[C@@H]3O`: the GI50 with KM12 is 0.318 µM (active); with U-251 it was 0.303 µM (active); in the assay on SF-295, 0.218 µM (active); in the assay with A498, 0.253 µM (active); in the assay with OVCAR-4, 0.208 µM (active); with SK-MEL-28, 0.23 µM (active). In addition, the GI50 is 0.259 µM (active) in the assay with K562; 0.31 µM (active) in the assay on HL-60; 0.214 µM (active) with MDA-MB-435; 0.199 µM (active) in the assay with A549; 0.194 µM (active) with HOP-92; 0.232 µM (active) in the assay with HOP-62. For the same molecule, the GI50 with SK-MEL-2 was 0.175 µM (active); in the assay on ACHN, 0.211 µM (active); in the assay with RXF 393, 0.245 µM (active); with SW-620, 0.21 µM (active).
